| SMILES | pKa (acidic group) | pKa (basic group) |
| --- | --- | --- |
| O=C(O)C(c1ccc(C2CCCCC2)cc1)C(O)c1ccccc1 (stereo not drawn) | 4.24 | – |
| COc1ncnc2nc[nH]c12 | 9.16 | 2.21 |
| c1ccc(-c2cc(-c3ccccc3)c(NCCN3CCOCC3)nn2)cc1 | – | 6.81 |
| Nc1ccc2cc([N+](=O)[O-])ccc2c1 | – | 2.9 |
| COc1ccc(/C=C\C(=O)O)cc1 | 4.03 | – |
| N#CCC[n+]1ccc(C(N)=O)cc1.[Br-] | 13.3 | – |
| COc1ccc(NC(=S)c2ccc(OC)cc2)cc1 | 11.8 | – |
| O=c1[nH]c(=S)[nH]c2nc[nH]c12 | 5.88 | – |
| CNc1nnc(S(N)(=O)=O)s1 | 7.8 | – |
| CC(c1cccc([N+](=O)[O-])c1)[N+](=O)[O-] (stereo not drawn) | 6.67 | – |
| Nc1cccc(S(N)(=O)=O)c1 | – | 2.87 |
| CC(C)NNC1CCN(C(C)C)CC1 | – | 9.55 |
| O=[N+]([O-])c1cc(C[NH+]2CCOCC2)c(O)c2ccccc12 | 3 | – |
| CC1(C)[C@@H]2CC[C@](C(=O)O)(C2)[C@H]1O | 5.05 | – |
| Cc1ccc(N(C)CO)cc1 | – | 3.73 |
| O=C(O)Cn1nnnc1-c1ccccc1 | 2.11 | – |
| Cc1cc(C)n(Cc2cc(C)n(C)n2)n1 | – | 3.39 |
| CCCCP(=O)(O)CCCC | 3.22 | – |
| CC(C)NCCC#N | – | 8 |
| Cc1cc(Cc2cc(C)c(O)c(C)c2)c([O-])c([N+](=O)[O-])c1 | 11.1 | – |
| O=c1[nH]c2ccccc2c(=O)o1 | 8.25 | – |
| c1ccc(CN2CCCC2)cc1 | – | 9.51 |
| CCCCCCCP(=O)(CCCCCCC)CCCCCCC | – | 4.65 |
| CCOc1c(C#N)cnc2ccccc12 | – | 3.18 |
| N#CCC(=O)NN | 11.1 | 2.34 |

| SMILES | pKa (acidic group) | pKa (basic group) |
| --- | --- | --- |
| Cc1ccccc1/C=C/c1ccc(N(C)C)cc1 | – | 4.59 |
| Cc1cccc(=O)c(O)c1 | 7.26 | – |
| COc1ccc(-c2nc3ncccc3[nH]2)c(OC)c1 | – | 4.63 |
| Oc1ccc(Cl)c2ccccc12 | 8.64 | – |
| CCC[n+]1cccc2c(O)cccc21 | 6.06 | – |
| CC(C)C1=CC2=CC[C@H]3[C@@](C)(CCC[C@]3(C)C(=O)O)[C@@H]2CC1 | 6.4 | – |
| CCc1cnccc1N | – | 9.17 |
| FC(F)(F)c1cccc2ncccc12 | – | 3.09 |
| CC#CC(=O)O | 2.63 | – |
| Brc1ccc(Nc2ccccc2)cc1 | – | 1.73 |
| Cc1nn(C)c(C)c1Cl | – | 1.96 |
| Cc1cc(C(=O)O)c[nH]1 | 5.35 | – |
| N#CC(C#N)=NNc1ccccc1O | 6.1 | – |
| Nc1ccc(F)cc1 | – | 4.64 |
| Cc1ccc(C(=O)c2ccccc2C(=O)O)cc1 | 3.64 | – |
| CCc1cc(O)cc(C)c1Cl | 9.6 | – |
| CC(C)N1CCCCC1 | – | 11 |
| COc1ccccc1/N=C/N(C)C | – | 8.11 |
| Nc1ccc(S(=O)(=O)Nc2ccn(-c3ccc([N+](=O)[O-])cc3)n2)cc1 | 6.94 | – |
| c1ccc(C(CCN2CCCCC2)c2ccccc2)cc1 | – | 8.96 |
| CC(=O)/C(Cl)=N/O | 7.9 | – |
| NCCCCC#CC#CCCC(=O)[O-] | – | 10.5 |
| CN1C[C@@H](C(=O)[O-])C=C2c3cccc4[nH]cc(c34)C[C@@H]21 | – | 7.85 |
| CC(=O)c1ccc(C(=O)O)cc1 | 3.72 | – |
| [NH3+]CCCCC(=O)O | 4.26 | – |

| SMILES | pKa (acidic group) | pKa (basic group) |
| --- | --- | --- |
| C/C(CN(C)C)=N\[O-] | – | 10.9 |
| O/N=C\c1ccco1 | 10.8 | – |
| Cc1n[nH]c2ncnc(N)c12 | 11.1 | 4.61 |
| Cn1c[nH+]cc1C[C@H](NC(=O)CC[NH3+])C(=O)O | 2.64 | – |
| CC(=O)N(C)c1cccnc1 | – | 3.52 |
| COC(=O)c1ccccc1O | 10.3 | – |
| Nc1ncnc2c1nnn2Cc1ccco1 | – | 2.6 |
| CN(C)CCCN=C(c1ccccc1)c1ccccc1 | – | 9.4 |
| O=C(CC(=O)c1ccccc1)Nc1ccccc1[N+](=O)[O-] | 9.54 | – |
| [S-]c1ncccn1 | – | 7.2 |
| Cc1ccc([N+](=O)[O-])c2c(NCCC[NH+](C)C)cc(-c3ccccc3)nc12 | – | 5.43 |
| O=C1CC(Sc2ccc([N+](=O)[O-])cc2)N1 (stereo not drawn) | 13 | – |
| CCCCCCP(=O)(O)CCCCCC | 3.24 | – |
| [O-]c1ccnc([S-])[nH+]1 | – | 7.75 |
| Cc1cc(Cl)n(C)c2nc3ccccc3c1-2 | – | 7.45 |
| O=C(O)[C@@H]1C[C@@H](O)C[NH2+]1 | 1.92 | – |
| C[C@H]([NH3+])C(=O)O | 2.42 | – |
| CCCCNCCNCCCC | – | 10.2 |
| c1coc(CNCCNCc2ccco2)c1 | – | 8.61 |
| OC(c1ccncc1)(c1ccncc1)c1ccccn1 | 12.4 | – |
| Cc1nc2ccccc2nc1[O-] | – | 9.88 |
| ONc1ccc(Cl)cc1 | – | 2.58 |
| CCCN(CCC)c1ccc([N+](=O)[O-])cc1 | – | 1.06 |
| CC[NH2+]CCN | – | 7.52 |
| Cc1cc(C(=O)O)ccc1Cl | 4.07 | – |

| SMILES | pKa (acidic group) | pKa (basic group) |
| --- | --- | --- |
| CCCCCCCCCCCCCCCCCCN(CC(C)O)CC(C)O (stereo not drawn) | – | 9.4 |
| c1ccc(CC2=NCCC2)cc1 | – | 6.9 |
| O=C(O)C(=O)/C=C/c1ccccc1 | 1.97 | – |
| COc1ccc([N+](=O)[O-])c2cccnc12 | – | 3.55 |
| CC(C=C(c1cccs1)c1cccs1)N1CCCCC1C (stereo not drawn) | – | 7.46 |
| Cc1ccc2ccccc2n1 | – | 5.69 |
| Nc1ccc(S(=O)(=O)Nc2ccc(N)cn2)cc1 | 8.47 | – |
| Cc1ccccc1-n1nnnc1N | – | 1.23 |
| Cn1cnc2c(N)nc[nH+]c21 | – | -0.59 |
| Cc1cc(N)c2ccccc2n1 | – | 9.44 |
| Nc1cccc2nc3ccccc3cc12 | – | 6.04 |
| O=C(O)[C@]1(Cl)[C@@H]2CCC[C@@H]21 | 2.82 | – |
| Cc1cc2cccnc2c2ncccc12 | – | 5.26 |
| CCCCCCCCCCc1c(-c2ccccc2)nn(-c2ccccc2)c1O | 6.7 | – |
| O=C1CCc2cc(Cl)ccc2C1 | 12.5 | – |
| CN(C)CCN(C)C | – | 9.15 |
| [NH3+]CCC(=O)N[C@@H](Cc1cnc[nH]1)C(=O)[O-] | – | 6.74 |
| Brc1ccc2c(c1)-c1ccccc1C2[P+](c1ccccc1)(c1ccccc1)c1ccccc1 (stereo not drawn) | 7.53 | – |
| CC(=O)C(C)C(C)(C)C(=O)O (stereo not drawn) | 5.79 | – |
| Cc1ccccc1N(C)C | – | 6 |
| O=C([O-])c1nc2cc(Cl)ccc2[nH]1 | – | 4.3 |
| Nc1cc2ccccc2cn1 | – | 5.05 |
| O=C1CC[C@@H](C(=O)O)N1 | 3.4 | – |
| Cc1ccc(O)c([N+](=O)[O-])c1 | 7.4 | – |
| Nc1ccc2c(N)c3ccccc3nc2c1 | – | 11.5 |

| SMILES | pKa (acidic group) | pKa (basic group) |
| --- | --- | --- |
| O/C(=C/[n+]1ccccc1)c1ccccc1 | 4.8 | – |
| CN(C)c1ccccc1C(=O)[O-] | – | 8.46 |
| NNC(=O)C(F)(F)C(F)(F)C(F)(F)F | 8.02 | – |
| OC[C@H]1CCN2CCC[C@@H]12 | – | 10.9 |
| CN(C)c1cccc(NC=S)c1 | 11.8 | – |
| Oc1cccc2c1CCC2 | 10.2 | – |
| Nc1nc([O-])nc2nc[nH]c12 | – | 8.99 |
| Sc1ccc(Cl)c(Cl)c1 | 5.48 | – |
| CCCCCCCc1c(-c2ccccc2)nn(-c2ccccc2)c1O | 8 | – |
| Nc1nc([S-])c2ncn([C@H]3O[C@@H](CO)[C@H](O)[C@@H]3O)c2n1 | – | 8.34 |
| CC1(C)NC(=O)NC1=O | 9.19 | – |
| COc1ccc(C(=S)Nc2ccc(Cl)c(Cl)c2)cc1 | 10.1 | – |
| NC(=O)NS(=O)(=O)c1ccc(N)cc1 | 5.41 | – |
| C[N+](=O)[O-] | 10.5 | – |
| O=C(O)CCc1ccco1 | 4.36 | – |
| O=C1CCCCC1=O | 10.3 | – |
| CCc1cccnn1 | – | 3.58 |
| CCC1C(=O)c2ccccc2C1=O | 6.5 | – |
| CCc1ccnc2c1ccc1cccnc12 | – | 5.44 |
| O=C(C[n+]1cccc2c3ccccc3ccc21)c1ccc(-c2ccccc2)cc1 | 11.2 | – |
| [NH3+][C@@H](Cc1[nH+]c[nH]c1I)C(=O)O | 1.65 | – |
| COC(=O)c1c2ccccc2nc2ccccc12 | – | 3.45 |
| CCOC(=O)/C(C)=N/O | 9.64 | – |
| CCC1(CC)SC(=O)NC1=O | 6.42 | – |
| Cc1ccc(C(=S)Nc2cccc(F)c2)cc1 | 10.6 | – |

| SMILES | pKa (acidic group) | pKa (basic group) |
| --- | --- | --- |
| CN(C)c1ccc(SC#N)cc1 | – | 3.3 |
| OCC[n+]1cc(Br)c2ccccc2c1 | 13.1 | – |
| CN(C)c1ccc(Br)cc1 | – | 4.25 |
| NC(=O)Cc1ccncc1 | – | 5.08 |
| Cc1ccccc1NC(=S)c1ccccc1 | 10.2 | – |
| O=C(O)c1ccc(O)cc1 | 4.57 | – |
| C/C(=N/O)c1cc(C)c(C)cc1O | 8.2 | – |
| O=C(C[N+](=O)[O-])c1ccccc1 | 5.19 | – |
| Cc1ccc(O)c(Cc2cc(C)cc([N+](=O)[O-])c2[O-])c1 | 11.7 | – |
| c1ccc2c(c1)N1CCN2CC1 | – | 5.65 |
| O=CC1CCCCC1=O (stereo not drawn) | 6.35 | – |
| O=C1c2ccccc2C(=O)N1O | 6.13 | – |
| Oc1cccc2cn[nH]c12 | 8.6 | – |
| COc1ccccc1O | 9.7 | – |
| C[C@H](O)C(=O)C1=Nc2c([O-])nc(N)nc2NC1 | – | 10.1 |
| O=C(O)C#COc1ccccc1 | 3.09 | – |
| CC(O)c1cccc(O)c1CO (stereo not drawn) | 9.9 | – |
| CNCC(=O)N(C)C | – | 8.86 |
| c1ccc(-c2ccncc2)cc1 | – | 5.3 |
| CCOO | 11.8 | – |
| NS(=O)(=O)c1ccc(/N=C/c2ccccc2O)cc1 | 6.63 | – |
| N=C(Sc1ccccc1)c1ccccc1 | – | 4.48 |
| Cc1cccc(C)c1O | 10.6 | – |
| Nc1ccc(Sc2ccc(N)cc2)cc1 | – | 4.25 |
| Clc1ccc(-c2ncc(-c3ccccc3)o2)cc1 | – | 0.41 |

| SMILES | pKa (acidic group) | pKa (basic group) |
| --- | --- | --- |
| NCCCc1ccccn1 | – | 10.1 |
| CC(=O)c1cc(C(=O)C(C)(C)C)[nH]n1 | 9.7 | – |
| Cn1cnc2nc(N)[nH+]c(O)c21 | 3.57 | – |
| Cc1ccc(S(=O)(=O)[N-]CCC(=N)N)cc1 | – | 10.8 |
| NC(Cc1ccccc1)C(=O)[O-] (stereo not drawn) | – | 9.17 |
| Cc1ccc2c(c1)CCN2 | – | 5 |
| c1ccc(-c2cccnc2)nc1 | – | 4.42 |
| CO[C@H]1C=CC2=CCN3CC[C@H](CO)/C(=C\CO)[C@]23C1 | – | 7.79 |
| Cc1cc(O)c(=O)ccc1Br | 6.6 | – |
| C#CCNc1ccccc1 | – | 3.06 |
| CC[NH+](CC)CCC(C)Nc1c2ccc(Cl)cc2nc2ccc(OC)cc12 (stereo not drawn) | – | 7.2 |
| CSc1ccc(O)cc1 | 9.5 | – |
| CCOC(=S)S | 1.79 | – |
| Oc1nc2nc[nH]c2c(O)[nH+]1 | 1.2 | – |
| O=C(Cc1cccnc1)c1ccccc1 | 13.7 | 4.87 |
| c1cc(N2CCOCC2)ccc1N1CCCCC1 | – | 6.7 |
| CN(C)c1cc[n+](C)c([O-])n1 | – | 4.2 |
| CCSC(=O)c1cccc(Br)c1 | – | -5.53 |
| CCc1ccccn1 | – | 5.98 |

— the pKa sets of Baltruschat and Czodrowski (2020)
